Assays:
[1] = system: SCC12 cells; test: Organotypic invasion assay; type: cell-based, human
Method: (§1) In this assay, hDF or CAFs were cultured during one week in serum-free medium (with either vehicle or cytokines) or CM before embedding in matrix gel. 5×10^5 fibroblasts were embedded in a 1 ml mixture of collagen I and Matrigel18. After the gel was set at 37° C. for 1 h, 5×10^5 SCC12 were plated on top of the gel in complete media. The next day, the gel was lifted onto individual collagen coated nylon discs resting on metal bridges and fed from underneath with daily changes of complete media (with either vehicle or inhibitors), allowing the epithelial layer to grow at an air-liquid interface.
(§2) After 5 days, cultures were fixed (4% paraformaldehyde+0.25% glutaraldehyde in PBS) and processed for haematoxylin and eosin (H&E) staining by standard methods. Invasion assay was measuring the total area of SCC cells and the area of non-invading SCC cells using imageJ software (http://rsbweb.nih.gov/ij/). The value of invasion index shown is the average 1−(non-invading area/total area) of at least ten fields from three or more independent experiments. Error bars are the standard deviation.

[2] = system: hDF; test: Collagen fibre assembly in 3D-organotypic cultures (Sirius Red); type: cell-based, human; conditions: hDF stimulated by either TGFβ1 or LIF
Method: (§3) After embedding in paraffin, tissue sections from organotypic culture, skin from human breast and foreskin, and human skin carcinomas were prepared on slides using standard methods. Collagen assembly was evaluated by Sirius Red staining. Briefly, sections were first incubated with Weigert's iron hematoxylin (#C0231, Diapath, Martinengo, Italy) for 8 minutes and washed in distilled water for 10 minutes. Sections were next incubated with 1% Sirius Red in saturated picric acid for 1 hour. The slides were then washed twice with 0.5% acetic acid in distilled H2O, dehydrated and mounted using classical procedures. Sections were analysed using polarized light imaging and confocal laser microscopy with a LSM 5 EXCITER confocal microscope (Carl Zeiss, Germany). Collagen fibres thickness and length were quantified using ImageJ software.

[3] = system: 410.4 cells; test: Orthotopic tumours in BALB/c mice; type: in vivo, mouse; conditions: 21-day oral gavage, 30 mg/kg/day
Method: as §3
6-8 weeks old female BALB/c mice were anesthetized using ketamine and xelazine by peritoneal injection. Skin was incised and 5.10^3 67NR or 410.4 cells (5.10^3) were injected into the right and left 4th mammary fat pad in 10 μl of PBS for each mouse. 67NR group consisted of 2 mice (4 primary tumours), 410.^4 group consisted of 7 mice (14 tumours) and 410.4 with additional treatment of Ruxolitinib (30 mg/kg/day) group consisted of 5 mice (10 tumours). Mice were sacrificed 30 days post-injection and Ruxolitinib treatment started 7 days after injection, primary tumours were removed and fixed in PBS containing 3.7% formalin for 8 hours, followed by was with PBS and transfer to 70% ethanol, and then embedded in paraffin, sectioned and stained with haematoxylin and eosin. Immunohistochemistry detection using anti-LIF, anti-p-STAT3 and anti-alpha-SMA antibodies was performed on paraffin sections following manufactures instructions.

[4] = system: mouse dermal fibroblasts; test: TGFβ1-stimulated mouse dermal fibroblasts: STAT3 phosphorylation and collagen gel contraction; type: cell-based
Method: (§4) 2.5×10^4 Fibroblasts were embedded in 100 μl of matrix gel (the Collagen-Matrigel mixture used for organotypic invasion assays) and plated into wells of a 96 well plate^57. After 1 h at 37° C., the matrices were overlaid with 100 μl serum-free medium (with either vehicle, cytokines or inhibitors) or CM. Every 2 days, medium was changed and at day 6 the gels were photographed and the respective diameters of the well and gel were measured using ImageJ. The percentage contraction was calculated using the formula 100*(well diameter−gel diameter)/well diameter.
For immunoblotting analysis, cells were lysed on ice in lysis buffer (25 mM Tris (pH 6.8), 2% Sodium dodecyl sulfate (SDS), 5% glycerol, 1% beta-mercaptoethanol, 0.01% bromophenol blue). Equal amounts of protein from each sample were loaded on sodium dodecyl sulfate-polyacrylamide gel electrophoresis, separated, and transferred onto nitrocellulose. The immunoblots were blocked by incubation in 5% bovine serum albumin, 10 mM Tris-HCl (ph7.5), 500 mM NaCl, 0.1% Tween 20 for 30 min at room temperature, probed with specific antibodies and then with secondary antibodies using common classical methods. Immunodetection was performed using chemiluminescent HRP subtrate (#WBKLS0500, Millipore, Billerica, Mass.).

[5] = system: hDF and hCAF; test: Matrix remodelling (collagen gel contraction) assay; type: cell-based, human; conditions: collagen rich lattices
Method: as §4

[6] = system: fibroblasts; test: Fibroblast contractility (collagen lattices) and pro-invasive activity (organotypic invasion) induced by human tumour cell conditioned media; type: cell-based; parameters: key to Fibroblasts contractile & pro-invasive phenotype: +: induction; −: no induction
Method: as §1, §2, §4
Neutralizing antibody against LIF (AB-250-NA, R&D, Minneapolis, Minn.), IL-6 R (AB-227-NA, R&D) or TGF beta-1,2,3 (MAB1835, R&D) were used at 10 μg/ml otherwise stated. Neutralizing antibody were incubated one hour with conditioned media before being used for matrix remodelling assay and fibroblasts stimulation to neutralize the biological activity of selected cytokines.
Cancer Cells were grown to confluence, washed twice with PBS and then incubated in serum-free medium at 37° C. After 48 hours, conditioned medium was collected, centrifugated at 5000 g for 5 minutes to remove cell debris and the supernatant stored at −80° C. For immunobloting analysis, fibroblasts were stimulated with cancer cells conditioned media for 5 min, otherwise stated, and lysed as described in the immunbloting section. To analyse LIF secretion upon TGFβ-1 stimulation, fibroblasts were stimulated with 2 ng/ml TGF beta-1 for 1, 4, 24 or 48 h in serum-free medium and conditioned media was prepared as below for ELISA analysis.

[7] = mice implanted with 401.4 cells

N#CCC(C1CCCC1)n1cc(-c2ncnc3[nH]ccc23)cn1 (stereo not shown) [Ruxolitinib, 3-Cyclopentyl-3-[4-(7H-pyrrolo[2,3-d]pyrimidin-4-yl)-1H-pyrazol-1-yl]propanenitrile]
significant reduced: rates of invasion of the tumour cells ([3]; mice implanted with 401.4 cells, FIG. 4B)
without influencing: αSMA staining [3, 7] | LIF production ([3]; mice implanted with 410.4 cells)
−: Fibroblasts contractile & pro-invasive phenotype ([6]; A375M2 CM (h. melanoma), antibodies 10 μg·ml−1, αLIF (50)) | Fibroblasts contractile & pro-invasive phenotype ([6]; A375P CM (h. melanoma), antibodies 10 μg·ml−1) | Fibroblasts contractile & pro-invasive phenotype ([6]; A549 CM (h. lung carcinoma), antibodies 10 μg·ml−1) | Fibroblasts contractile & pro-invasive phenotype ([6]; CAL27 CM (human OSCC), antibodies 10 μg·ml−1, αLIF (50)) | Fibroblasts contractile & pro-invasive phenotype ([6]; CAL33 CM (human OSCC), antibodies 10 μg·ml−1) | Fibroblasts contractile & pro-invasive phenotype ([6]; CAL33_LIF CM (h. engineered cell line), antibodies 10 μg·ml−1, αLIF (50)) | Fibroblasts contractile & pro-invasive phenotype ([6]; CAL33_mock CM (h. engineered cell line), antibodies 10 μg·ml−1) | Fibroblasts contractile & pro-invasive phenotype ([6]; CAL60 CM (human OSCC), antibodies 10 μg·ml−1) | Fibroblasts contractile & pro-invasive phenotype ([6]; CAL166 CM (human OSCC), antibodies 10 μg·ml−1) | Fibroblasts contractile & pro-invasive phenotype ([6]; Detroit562 CM (human OSCC), antibodies 10 μg·ml−1) | Fibroblasts contractile & pro-invasive phenotype ([6]; LS174 CM (h. colon carcinoma), antibodies 10 μg·ml−1) | Fibroblasts contractile & pro-invasive phenotype ([6]; MDA-MB-231 CM (breast carcinoma), antibodies 10 μg·ml−1) | Fibroblasts contractile & pro-invasive phenotype ([6]; MDA-MB-468 CM (breast carcinoma), antibodies 10 μg·ml−1) | Fibroblasts contractile & pro-invasive phenotype ([6]; Mel501 CM (h. melanoma), antibodies 10 μg·ml−1) | Fibroblasts contractile & pro-invasive phenotype ([6]; Mel1205 CM (h. melanoma), antibodies 10 μg·ml−1) | Fibroblasts contractile & pro-invasive phenotype ([6]; SCC12 CM (human OSCC), antibodies 10 μg·ml−1) | Fibroblasts contractile & pro-invasive phenotype ([6]; SCC13 CM (human OSCC), antibodies 10 μg·ml−1) | Fibroblasts contractile & pro-invasive phenotype ([6]; SCC25 CM (human OSCC), antibodies 10 μg·ml−1) | Fibroblasts contractile & pro-invasive phenotype ([6]; Sbcl2 CM (h. melanoma), antibodies 10 μg·ml−1) | Fibroblasts contractile & pro-invasive phenotype ([6]; WM35 CM (h. melanoma), antibodies 10 μg·ml−1) | Fibroblasts contractile & pro-invasive phenotype ([6]; WM278 CM (h. melanoma), antibodies 10 μg·ml−1) | Fibroblasts contractile & pro-invasive phenotype ([6]; WM793 CM (h. melanoma), antibodies 10 μg·ml−1) | Fibroblasts contractile & pro-invasive phenotype ([6]; hPK CM, antibodies 10 μg·ml−1)
prevented: track formation and SCC12 cell invasion promoted by hCAF ([1]; hCAF)
inhibited: capacity to assembly polarized collagen fibres [2] | STAT3 phosphorylation within the tumour microenvironment in vivo [3, 7]
abrogated: pro-invasive hDF activation induced upon TGFβ1 and LIF stimulation ([1]; hDF, TGFβ1 and LIF stimulation)
completely inhibited: TGFβ1 and LIF-dependent activation of hDF contractility [5]
reduced: Sirius Red staining and formation of collagen bundles ([3]; mice implanted with 401.4 cells, FIG. 4C)
complete abrogation: STAT3 phosphorylation [4] | matrix remodelling [4]
